# Data: patent publication US7629317B2, “Control of growth and repair of gastro-intestinal tissues by gastrokines and inhibitors” (The University of Chicago, priority 2001, dated 2009)
# “Also recorded” adds a separate entry of the source.
# What was measured:
# [1] = tested on: SK-GT5 cells; assay: Growth of SK-GT5 gastroesophageal adenocarcinoma cells; type: cell-based; details: concentration-dependent
# Experimental: (§1) To characterize the capacity of gastric and intestinal cells to respond to AMP-18, AGS gastric adenocarcinoma cells, HAE human gastric antrum mucosa primary cultures transformed with SV40 large T antigen, rat diploid small intestinal epithelial cells of the IEC-6 (FIG. 15) and IEC-18 lines, NCI N-87 gastric carcinoma cells, and SK-GT5 gastroesophageal adenocarcinoma cells were studied; human WI-38 fibroblasts and HeLa cells served as non-GI control cell lines. Mitogenesis was assayed by performing cell counts 3 to 4 days after exposing cells to the agent of interest, trypsinizing the culture to prepare single cells, and confirming this while counting them in a hemocytometer.
# [2] = tested on: mice with Pseudomonas aeruginosa-induced gut-derived sepsis; assay: Pseudomonas aeruginosa-induced gut-derived sepsis in mice; type: in vivo, female Balb/c mice; details: 15 mg/kg i.p for 4 days, s.c. for 1 day; all vehicle animals dead; listed as AMP peptide
# Experimental: To determine if AMP peptide could play a cytoprotective role in GDS, a study was carried out in C2 cell monolayers that were exposed to the PA-I lectin. […] Next the effect of AMP peptide was studied in the mouse model of P. aeruginosa-induced-GDS (Laughlin et al., 2000) using female Balb/c mice subjected to 30% hepatectomy, injection of a solution of living P. aeruginosa into the cecum, and food deprivation postoperatively. All 8 of the mice survived surgery.
# [3] = tested on: AGS cells; assay: Growth of gastric epithelial AGS cells (cell count four days later); type: cell-based, human
# Experimental: as §1
# [4] = tested on: protein kinase (PK) C zeta (ζ); assay: Phosphorylation of PKCζ in C2 cells (immunoblotting, confocal microscopy); type: cell-based, human; details: within 20 min
# Source text: To learn more about how AMP peptide could participate in the establishment of TJ structures and epithelial cell polarity during epithelial wound healing, attention was focused on protein kinase (PK) C zeta (ζ), an atypical PKC that appears to be required for assembly of TJs (Suzuki et al., 2001). PKCζ, presumably in its active form phospho-PKCζ, regulates TJs, apparently by interacting with several TJ-associated proteins including occludin, PAR-6, and PAR-3.
# [5] = tested on: tyrosine phosphorylation, p38 MAP kinase, hsp25, JNK1/2, ERK1/2; assay: Phosphorylation of signaling proteins in IEC-18 cells (immunoblot); type: cell-based, rat
# Experimental: To find signaling molecules by which AMP peptide mediates its biological effects, it was asked if the peptide stimulates tyrosine phosphorylation in GI epithelial cells. IEC-18 cells were treated with AMP peptide for different periods of time, the cells were then lysed, the proteins extracted and separated on SDS-polyacrylamide gels, blotted, and the blot was probed with 4G10 anti-phosphotyrosine monoclonal antibody.
# First the effect of AMP peptide on phosphorylation of p38 MAPK in IEC-18 cells was examined. After exposure to the peptide (8 μg/ml) for up to 2 hr, the cells were lysed, the proteins were extracted, and Western blot analysis was performed using anti-phospho-specific p38 antibody. Then the membrane was stripped and reprobed with anti-p38 antibody. […] Next, to see if AMP peptide stimulated phosphorylation of hsp25, a specific anti-phospho-hsp25 antibody (Affinity BioReagents) was used to probe a blot prepared using AMP peptide-treated IEC-18 cells as above.
# [6] = tested on: occludin; assay: Occludin in mouse colonic mucosa in vivo (immunoblot of NP-40-insoluble fraction); details: listed as AMP peptide
# Experimental: To look for a systemic effect of treatment with AMP peptide during the development of DSS colitis, body weight was measured. During the first 4 days of DSS administration, body weight changed little in peptide- or vehicle-treated mice. Then DSS was discontinued, the animals were given water to drink (day 0; FIG. 27, right panel), and measurements of weight were continued. […] To better understand how AMP peptide could exert these salutary effects on hematochezia and weight loss in DSS colitis, studies were performed to determine if observations in cultures of C2 cells were also relevant in vivo. Because DSS treatment appeared to injure barrier function in monolayer cultures of C2 cells, assessed as a decrease in TER (FIG. 22) and reduced occludin in the detergent-insoluble fraction (FIG. 36), a question was whether DSS might adversely affect the content of this TJ protein in vivo. Mice (n=10) were given DSS (3%) or water to drink. Four days later animals were killed, the contents of the colon lumen including blood were washed out, and the mucosa was inspected. The colonic epithelial surface of mice given DSS appeared largely intact with no obvious ulcerations or denuded areas. Surface cells of visibly intact mucosa were then collected by scraping with a glass slide. Occludin levels in the NP-40-insoluble fraction were assessed by immunoblotting. […]
# [7] = tested on: Acinetobacter baumanii; assay: Growth of other bacteria and fungi; type: cell-based
sequence,measurement,setting,value
"LDALVKEKKLQGKGPGGPPPK [97–117, peptide 77-97 of the mature protein, same as 97-117 of the human precursor]",growth of SK-GT5 cells,[1],stimulated
same,survival one day after P. aeruginosa injection into the cecum,[2],alive and well
same,growth stimulation together with EGF,[3]; peptide 77-97 8 μg/ml + EGF 50 ng/ml,additive
same,growth stimulation of AGS cells (in words),"[3]; peptide 77-97 8 μg/ml, EGF 50 ng/ml at saturating doses",stimulated growth; also recorded: mitogenic
same,phosphorylation of PKCζ,[4],increase in phosphorylation
same,phospho (P)-hsp25,[5]; 30 min,stimulated the appearance
same,activation (phosphorylation) of JNK1/2 and ERK1/2,"[5]; JNKs after 10 min, ERKs at 20 min, listed as AMP peptide",rapidly activated
same,total hsp25,[5]; after 1 hr,increase
same,total p38 MAPK,[5]; peptide 8 μg/ml,no change
same,p38 MAP kinase phosphorylation,"[5]; peptide 8 μg/ml, 30 min, listed as AMP peptide",striking increase; also recorded: increased
same,protein tyrosine phosphorylation,"[5]; peptide 8 μg/ml, two min",tyrosine phosphorylation of several proteins
same,amount of β-catenin in colonic mucosal epithelial cells,[6],did not alter; also recorded: does not alter
same,growth of Acinetobacter baumanii,[7],did not alter the growth
